Experimental data from US8088819B2, “Derivatives of substituted 3-phenyl-1-(phenylthienyl)propan-1-ones and of 3-phenyl-1-(phenylfuranyl) propan-1-ones, preparation and use” (priority 2006, dated 2012).
pEC50: −log10 of the molar value.

Key:
hPPARalpha = biological target: T1, hPPARalpha (Homo sapiens, UniProt Q07869); experiment: PPAR activation: Gal4-hPPARα chimera luciferase transactivation in COS-7 cells, Method 2; format: cell-based; conditions: COS-7, 24 h
T1 construct: expressed in transfected cells; host or cells: COS-7 (monkey kidney fibroblasts)
T1 sequence (Q07869 239-466 limits assumed): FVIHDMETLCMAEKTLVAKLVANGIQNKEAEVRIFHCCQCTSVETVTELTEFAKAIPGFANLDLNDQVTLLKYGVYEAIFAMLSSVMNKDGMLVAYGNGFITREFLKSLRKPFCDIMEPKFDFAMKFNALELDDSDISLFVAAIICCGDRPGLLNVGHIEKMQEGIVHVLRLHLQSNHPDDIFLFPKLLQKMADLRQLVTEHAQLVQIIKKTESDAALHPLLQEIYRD
Outline: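 COS-7 cells were transfected with Gal4-PPAR LBD chimera plus Gal4(RE)_TkpGL3 luciferase reporter (1/10) and seeded serum-free for 4 h. Compounds at 10^−5 to 100 μm were applied for 24 h at 37° C in 1% lipid-free synthetic serum. Luciferase was read after lysis, and EC50 derived.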

db/db mouse = experiment: Plasma triglycerides and insulinemia in the db/db mouse; format: in vivo; conditions: 50 mpk oral, 28 days
Method: The effect of the compounds according to the invention is evaluated in vivo in the db/db mouse by measuring the plasma triglycerides and insulinemia after 28 days of treatment with compound 2 by the oral route. These levels are compared with those obtained with control animals (not treated with the compound according to the invention). The measured difference provides evidence of the antilipemic effect and effect on insulin resistance of the compound according to the invention.
Female db/db mice were kept under a cycle of light and darkness of 12/12 hours at a constant temperature of 20±3° C. After acclimation for one week, the mice were weighed and put in groups of 8 animals selected so that the distribution of their body weight and of their plasma lipid levels, determined for the first time before the experiment, are uniform. The test compounds were suspended in carboxymethylcellulose (Sigma C4888) and administered by intragastric force feeding, at a rate of once per day for 28 days at the chosen dose. The animals had free access to water and to food (standard diet). The food intake and the weight gain are recorded throughout the experiment. […]
The plasma concentrations of triglycerides were measured by enzyme assays (bioMérieux-Lyon-France) following the supplier's recommendations. […]

Compound | pEC50 (hPPARalpha; 1% Ultroser) | Emax (hPPARalpha; maximum percentage response relative to the reference phenofibric acid, read-out: hPPARalpha % max) [%] | insulinemia (plasma levels of insulin) (db/db mouse) | plasma triglyceride level (db/db mouse)
CC(C)(Oc1ccc(CCC(OCc2ccccc2)c2ccc(-c3ccc(C(F)(F)F)cc3)s2)c(Cl)c1Cl)C(=O)O (stereo not shown) [Compound 7, 2-(4-(3-(benzyloxy)-3-(5-(4-(trifluoromethyl)phenyl)thien-2-yl)propyl)-2,3-dichlorophenoxy)-2-methylpropanoic acid] | 5.26 | 20 | – | –
CC(C)(Oc1ccc(CCC(=O)c2ccc(-c3ccc(C(F)(F)F)cc3)s2)c(Cl)c1Cl)C(=O)O [Compound 2, 2-(2,3-dichloro-4-(3-oxo-3-(5-(4-(trifluoromethyl)phenyl)thien-2-yl)propyl)phenoxy)-2-methylpropanoic acid] | – | – | lowered significantly | lowered significantly
